Experimental data reported in PubChem BioAssay (NCI).
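1) Cells in 96-well plates. 2) Compound, 48 h, 5 concentrations. 3) Linear interpolation between surrounding doses. 4) Unreached endpoint = highest concentration. GI50: concentration for 50% inhibition of growth. At the TGI there is no net growth.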

Assays:
Test in all cases: inhibition of tumour cell growth, NCI panel, 48 h
A549 NSCLC = system: A549 NSCLC
CAKI-1 renal = system: CAKI-1 renal
SK-MEL-2 melanoma = system: SK-MEL-2 melanoma
A498 renal = system: A498 renal
SF-295 CNS = system: SF-295 CNS
OVCAR-8 ovarian = system: OVCAR-8 ovarian
NCI-H522 lung = system: NCI-H522 lung
MALME-3M melanoma = system: MALME-3M melanoma
MOLT-4 leukemia = system: MOLT-4 leukemia
SF-539 CNS = system: SF-539 CNS
SNB-19 CNS = system: SNB-19 CNS
NCI/ADR-RES ovarian = system: NCI/ADR-RES ovarian
KM12 colon = system: KM12 colon
BT-549 breast = system: BT-549 breast
CCRF-CEM leukemia = system: CCRF-CEM leukemia
SR leukemia = system: SR leukemia
MDA-N = system: MDA-N
U251 CNS = system: U251 CNS
MDA-MB-435 = system: MDA-MB-435
HOP-62 NSCLC = system: HOP-62 NSCLC
HCT-116 colon = system: HCT-116 colon
M14 melanoma = system: M14 melanoma
786-0 renal = system: 786-0 renal
HL-60(TB) leukemia = system: HL-60(TB) leukemia
OVCAR-5 ovarian = system: OVCAR-5 ovarian
OVCAR-3 ovarian = system: OVCAR-3 ovarian
SK-MEL-28 melanoma = system: SK-MEL-28 melanoma
IGROV1 ovarian = system: IGROV1 ovarian
HOP-92 NSCLC = system: HOP-92 NSCLC
ACHN renal = system: ACHN renal
RPMI-8226 leukemia = system: RPMI-8226 leukemia
SK-MEL-5 melanoma = system: SK-MEL-5 melanoma
SK-OV-3 ovarian = system: SK-OV-3 ovarian
SW-620 colon = system: SW-620 colon
HCT-15 colon = system: HCT-15 colon
HT29 colon = system: HT29 colon
RXF 393 renal = system: RXF 393 renal
NCI-H23 lung = system: NCI-H23 lung
T-47D breast = system: T-47D breast
PC-3 prostate = system: PC-3 prostate
LOX IMVI melanoma = system: LOX IMVI melanoma
MDA-MB-231 breast = system: MDA-MB-231 breast
OVCAR-4 ovarian = system: OVCAR-4 ovarian
K-562 leukemia = system: K-562 leukemia
UACC-257 melanoma = system: UACC-257 melanoma
HS 578T breast = system: HS 578T breast
SF-268 CNS = system: SF-268 CNS
UO-31 renal = system: UO-31 renal
SN12C renal = system: SN12C renal
UACC-62 melanoma = system: UACC-62 melanoma
DU-145 prostate = system: DU-145 prostate
NCI-H460 lung = system: NCI-H460 lung
MCF7 breast = system: MCF7 breast
SNB-75 CNS = system: SNB-75 CNS
EKVX NSCLC = system: EKVX NSCLC
TK-10 renal = system: TK-10 renal
COLO 205 colon = system: COLO 205 colon
NCI-H226 lung = system: NCI-H226 lung

## C/C(=N\[N+](C)(C)C)c1ccc(C)c(C)c1
A549 NSCLC
  TGI: > 100 µM
CAKI-1 renal
  GI50: > 100 µM
  TGI: > 100 µM
SK-MEL-2 melanoma
  TGI: > 100 µM
A498 renal
  TGI: > 100 µM
SF-295 CNS
  TGI: > 100 µM
OVCAR-8 ovarian
  TGI: > 100 µM
NCI-H522 lung
  TGI: > 100 µM
MALME-3M melanoma
  GI50: > 100 µM
  TGI: > 100 µM
MOLT-4 leukemia
  GI50: > 100 µM
  TGI: > 100 µM
SF-539 CNS
  GI50: > 100 µM
  TGI: > 100 µM
SNB-19 CNS
  TGI: > 100 µM
NCI/ADR-RES ovarian
  GI50: > 100 µM
  TGI: > 100 µM
KM12 colon
  TGI: > 100 µM
BT-549 breast
  TGI: > 100 µM
CCRF-CEM leukemia
  TGI: > 100 µM
SR leukemia
  TGI: > 100 µM
MDA-N
  TGI: > 100 µM
U251 CNS
  TGI: > 100 µM
MDA-MB-435
  TGI: > 100 µM
HOP-62 NSCLC
  GI50: > 100 µM
  TGI: > 100 µM
HCT-116 colon
  TGI: > 100 µM
M14 melanoma
  GI50: > 100 µM
  TGI: > 100 µM
786-0 renal
  GI50: > 100 µM
  TGI: > 100 µM
HL-60(TB) leukemia
  TGI: > 100 µM
OVCAR-5 ovarian
  TGI: > 100 µM
OVCAR-3 ovarian
  TGI: > 100 µM
SK-MEL-28 melanoma
  GI50: > 100 µM
  TGI: > 100 µM
IGROV1 ovarian
  TGI: > 100 µM
HOP-92 NSCLC
  GI50: > 100 µM
  TGI: > 100 µM
ACHN renal
  GI50: > 100 µM
  TGI: > 100 µM
RPMI-8226 leukemia
  TGI: > 100 µM
SK-MEL-5 melanoma
  TGI: > 100 µM
SK-OV-3 ovarian
  TGI: > 100 µM
SW-620 colon
  TGI: > 100 µM
HCT-15 colon
  GI50: > 100 µM
  TGI: > 100 µM
HT29 colon
  TGI: > 100 µM
RXF 393 renal
  TGI: > 100 µM
NCI-H23 lung
  TGI: > 100 µM
T-47D breast
  TGI: > 100 µM
PC-3 prostate
  TGI: > 100 µM
LOX IMVI melanoma
  GI50: > 100 µM
  TGI: > 100 µM
MDA-MB-231 breast
  GI50: > 100 µM
  TGI: > 100 µM
OVCAR-4 ovarian
  TGI: > 100 µM
K-562 leukemia
  TGI: > 100 µM
UACC-257 melanoma
  TGI: 26.7 µM
HS 578T breast
  GI50: > 100 µM
  TGI: > 100 µM
SF-268 CNS
  GI50: > 100 µM
  TGI: > 100 µM
UO-31 renal
  TGI: > 100 µM
SN12C renal
  TGI: 69.7 µM
UACC-62 melanoma
  TGI: > 100 µM
DU-145 prostate
  TGI: > 100 µM
NCI-H460 lung
  TGI: > 100 µM
MCF7 breast
  GI50: > 100 µM
  TGI: > 100 µM
SNB-75 CNS
  TGI: > 100 µM
EKVX NSCLC
  TGI: > 100 µM
TK-10 renal
  TGI: > 100 µM
COLO 205 colon
  TGI: 38.3 µM

## Cn1c(=O)c2[nH]c(CSCc3ccccc3)nc2n(C)c1=O
A549 NSCLC
  TGI: > 100 µM
CAKI-1 renal
  TGI: > 100 µM
SK-MEL-2 melanoma
  TGI: > 100 µM
A498 renal
  TGI: > 100 µM
SF-295 CNS
  TGI: > 100 µM
OVCAR-8 ovarian
  TGI: > 100 µM
NCI-H522 lung
  TGI: > 100 µM
MALME-3M melanoma
  TGI: > 100 µM
MOLT-4 leukemia
  TGI: > 100 µM
SF-539 CNS
  TGI: > 100 µM
SNB-19 CNS
  TGI: > 100 µM
NCI/ADR-RES ovarian
  TGI: > 100 µM
KM12 colon
  TGI: > 100 µM
BT-549 breast
  TGI: > 100 µM
SR leukemia
  TGI: > 100 µM
MDA-N
  TGI: > 100 µM
NCI-H226 lung
  TGI: > 100 µM
U251 CNS
  TGI: > 100 µM
MDA-MB-435
  TGI: > 100 µM
HOP-62 NSCLC
  TGI: > 100 µM
HCT-116 colon
  TGI: > 100 µM
M14 melanoma
  TGI: > 100 µM
786-0 renal
  TGI: > 100 µM
OVCAR-5 ovarian
  TGI: > 100 µM
OVCAR-3 ovarian
  TGI: > 100 µM
SK-MEL-28 melanoma
  TGI: > 100 µM
IGROV1 ovarian
  TGI: > 100 µM
HOP-92 NSCLC
  TGI: > 100 µM
ACHN renal
  TGI: > 100 µM
RPMI-8226 leukemia
  TGI: > 100 µM
SK-MEL-5 melanoma
  TGI: > 100 µM
SK-OV-3 ovarian
  TGI: > 100 µM
HCT-15 colon
  TGI: > 100 µM
HT29 colon
  TGI: > 100 µM
RXF 393 renal
  TGI: > 100 µM
NCI-H23 lung
  TGI: > 100 µM
T-47D breast
  TGI: > 100 µM
PC-3 prostate
  TGI: > 100 µM
LOX IMVI melanoma
  TGI: > 100 µM
MDA-MB-231 breast
  TGI: > 100 µM
OVCAR-4 ovarian
  TGI: > 100 µM
K-562 leukemia
  TGI: > 100 µM
UACC-257 melanoma
  TGI: > 100 µM
HS 578T breast
  TGI: > 100 µM
SF-268 CNS
  TGI: > 100 µM
UO-31 renal
  TGI: > 100 µM
SN12C renal
  TGI: > 100 µM
UACC-62 melanoma
  TGI: > 100 µM
DU-145 prostate
  TGI: > 100 µM
NCI-H460 lung
  TGI: > 100 µM
MCF7 breast
  TGI: > 100 µM
SNB-75 CNS
  TGI: > 100 µM
EKVX NSCLC
  TGI: > 100 µM
TK-10 renal
  TGI: > 100 µM
COLO 205 colon
  TGI: > 100 µM
